Source: ChEMBL document CHEMBL5465560, “Selectivity Literature for EUbOPEN Chemogenomic Library” (2024)
pIC50: −log10 of the molar value.

Experiments:
[1] = target: Dual specificity protein kinase CLK2 (Homo sapiens, UniProt P49760); test: Selectivity interaction (KinomeScan (DiscoverX)) EUB0001550a CLK2; conditions: at 1 µM
[2] = target: 5-hydroxytryptamine receptor 2A (Homo sapiens, UniProt P28223); test: Selectivity interaction (GPCR panel (PDSP screen)) EUB0001079a HTR2A; conditions: at 10 µM
Chain of 5-hydroxytryptamine receptor 2A (P28223 whole entry): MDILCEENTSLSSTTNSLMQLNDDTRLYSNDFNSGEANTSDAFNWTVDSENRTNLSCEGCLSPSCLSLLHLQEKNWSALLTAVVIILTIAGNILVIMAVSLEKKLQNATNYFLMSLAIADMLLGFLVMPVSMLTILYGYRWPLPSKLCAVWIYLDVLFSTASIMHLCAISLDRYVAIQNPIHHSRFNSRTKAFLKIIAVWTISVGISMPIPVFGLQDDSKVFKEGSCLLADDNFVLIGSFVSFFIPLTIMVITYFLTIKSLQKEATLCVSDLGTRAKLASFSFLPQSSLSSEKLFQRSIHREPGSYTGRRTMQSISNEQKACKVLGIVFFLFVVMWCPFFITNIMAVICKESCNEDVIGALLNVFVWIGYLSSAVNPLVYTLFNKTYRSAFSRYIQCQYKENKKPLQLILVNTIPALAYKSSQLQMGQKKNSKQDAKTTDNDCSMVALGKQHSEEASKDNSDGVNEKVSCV

[3] = target: T1, Cyclin-dependent kinase 11A (Homo sapiens) (UniProt Q9UQ88); test: Selectivity interaction (KinomeScan (DiscoverX)) EUB0000666a CDK11A; conditions: at 10 µM
T1 sequence (whole entry): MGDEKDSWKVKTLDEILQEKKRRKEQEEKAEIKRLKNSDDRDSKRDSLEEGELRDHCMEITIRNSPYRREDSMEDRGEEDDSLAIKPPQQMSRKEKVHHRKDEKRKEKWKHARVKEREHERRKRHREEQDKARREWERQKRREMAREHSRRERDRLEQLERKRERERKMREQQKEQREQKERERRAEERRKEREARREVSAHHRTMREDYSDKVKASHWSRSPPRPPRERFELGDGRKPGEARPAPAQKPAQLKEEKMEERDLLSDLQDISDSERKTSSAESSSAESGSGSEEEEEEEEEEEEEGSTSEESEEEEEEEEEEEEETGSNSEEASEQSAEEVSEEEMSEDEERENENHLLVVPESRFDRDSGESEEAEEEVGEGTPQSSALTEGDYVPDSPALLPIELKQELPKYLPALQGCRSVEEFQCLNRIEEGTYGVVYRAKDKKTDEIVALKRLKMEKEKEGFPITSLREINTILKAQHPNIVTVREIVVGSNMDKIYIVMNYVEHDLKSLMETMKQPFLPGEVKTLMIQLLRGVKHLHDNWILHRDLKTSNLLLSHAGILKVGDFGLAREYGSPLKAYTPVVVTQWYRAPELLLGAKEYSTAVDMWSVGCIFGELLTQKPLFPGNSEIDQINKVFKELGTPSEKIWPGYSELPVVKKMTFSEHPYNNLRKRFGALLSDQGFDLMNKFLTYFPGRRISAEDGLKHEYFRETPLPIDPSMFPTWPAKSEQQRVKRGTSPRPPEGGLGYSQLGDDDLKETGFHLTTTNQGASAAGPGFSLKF

[4] = target: Tyrosine-protein kinase ABL1 (Homo sapiens, UniProt P00519); test: Selectivity interaction (Kinase panel (Enzyme activity assay)) EUB0000612a ABL1
Chain of Tyrosine-protein kinase ABL1 (P00519 whole entry): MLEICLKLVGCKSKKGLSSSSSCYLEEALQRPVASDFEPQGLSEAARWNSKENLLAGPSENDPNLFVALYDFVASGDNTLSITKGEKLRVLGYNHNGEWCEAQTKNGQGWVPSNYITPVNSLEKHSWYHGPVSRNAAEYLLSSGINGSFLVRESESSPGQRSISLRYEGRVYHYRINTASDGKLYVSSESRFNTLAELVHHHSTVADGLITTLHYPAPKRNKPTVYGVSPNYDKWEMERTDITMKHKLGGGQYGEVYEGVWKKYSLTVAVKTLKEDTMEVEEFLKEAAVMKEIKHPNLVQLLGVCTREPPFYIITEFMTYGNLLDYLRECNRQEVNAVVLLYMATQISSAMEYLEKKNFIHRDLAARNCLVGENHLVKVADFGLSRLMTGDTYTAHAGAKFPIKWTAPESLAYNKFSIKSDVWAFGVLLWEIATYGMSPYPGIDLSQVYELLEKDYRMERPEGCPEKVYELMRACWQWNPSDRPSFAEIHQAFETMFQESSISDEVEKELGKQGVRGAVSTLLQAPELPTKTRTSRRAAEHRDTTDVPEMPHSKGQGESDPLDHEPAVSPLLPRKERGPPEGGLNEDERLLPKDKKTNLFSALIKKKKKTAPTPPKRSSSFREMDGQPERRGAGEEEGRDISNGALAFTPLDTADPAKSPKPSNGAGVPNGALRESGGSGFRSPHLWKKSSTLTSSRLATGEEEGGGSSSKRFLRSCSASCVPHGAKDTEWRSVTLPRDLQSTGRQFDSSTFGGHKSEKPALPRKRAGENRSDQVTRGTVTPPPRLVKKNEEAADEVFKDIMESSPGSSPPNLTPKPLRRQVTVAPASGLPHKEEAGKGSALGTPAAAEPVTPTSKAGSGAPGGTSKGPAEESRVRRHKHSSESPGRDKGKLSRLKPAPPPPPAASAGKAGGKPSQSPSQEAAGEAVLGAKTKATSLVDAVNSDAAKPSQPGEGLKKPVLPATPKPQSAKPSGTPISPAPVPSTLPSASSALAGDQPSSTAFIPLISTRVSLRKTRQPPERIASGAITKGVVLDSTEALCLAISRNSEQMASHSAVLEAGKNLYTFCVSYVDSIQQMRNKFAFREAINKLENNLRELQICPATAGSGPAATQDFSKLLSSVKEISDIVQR

[5] = target: Mitogen-activated protein kinase kinase kinase 1 (Homo sapiens, UniProt Q13233); test: Selectivity interaction (ActivX KiNativ screen (kinase selectivity in THP-1 cell lysates)) EUB0000639a MAP3K1; format: subcellular; conditions: lysate
Chain of Mitogen-activated protein kinase kinase kinase 1 (Q13233 whole entry): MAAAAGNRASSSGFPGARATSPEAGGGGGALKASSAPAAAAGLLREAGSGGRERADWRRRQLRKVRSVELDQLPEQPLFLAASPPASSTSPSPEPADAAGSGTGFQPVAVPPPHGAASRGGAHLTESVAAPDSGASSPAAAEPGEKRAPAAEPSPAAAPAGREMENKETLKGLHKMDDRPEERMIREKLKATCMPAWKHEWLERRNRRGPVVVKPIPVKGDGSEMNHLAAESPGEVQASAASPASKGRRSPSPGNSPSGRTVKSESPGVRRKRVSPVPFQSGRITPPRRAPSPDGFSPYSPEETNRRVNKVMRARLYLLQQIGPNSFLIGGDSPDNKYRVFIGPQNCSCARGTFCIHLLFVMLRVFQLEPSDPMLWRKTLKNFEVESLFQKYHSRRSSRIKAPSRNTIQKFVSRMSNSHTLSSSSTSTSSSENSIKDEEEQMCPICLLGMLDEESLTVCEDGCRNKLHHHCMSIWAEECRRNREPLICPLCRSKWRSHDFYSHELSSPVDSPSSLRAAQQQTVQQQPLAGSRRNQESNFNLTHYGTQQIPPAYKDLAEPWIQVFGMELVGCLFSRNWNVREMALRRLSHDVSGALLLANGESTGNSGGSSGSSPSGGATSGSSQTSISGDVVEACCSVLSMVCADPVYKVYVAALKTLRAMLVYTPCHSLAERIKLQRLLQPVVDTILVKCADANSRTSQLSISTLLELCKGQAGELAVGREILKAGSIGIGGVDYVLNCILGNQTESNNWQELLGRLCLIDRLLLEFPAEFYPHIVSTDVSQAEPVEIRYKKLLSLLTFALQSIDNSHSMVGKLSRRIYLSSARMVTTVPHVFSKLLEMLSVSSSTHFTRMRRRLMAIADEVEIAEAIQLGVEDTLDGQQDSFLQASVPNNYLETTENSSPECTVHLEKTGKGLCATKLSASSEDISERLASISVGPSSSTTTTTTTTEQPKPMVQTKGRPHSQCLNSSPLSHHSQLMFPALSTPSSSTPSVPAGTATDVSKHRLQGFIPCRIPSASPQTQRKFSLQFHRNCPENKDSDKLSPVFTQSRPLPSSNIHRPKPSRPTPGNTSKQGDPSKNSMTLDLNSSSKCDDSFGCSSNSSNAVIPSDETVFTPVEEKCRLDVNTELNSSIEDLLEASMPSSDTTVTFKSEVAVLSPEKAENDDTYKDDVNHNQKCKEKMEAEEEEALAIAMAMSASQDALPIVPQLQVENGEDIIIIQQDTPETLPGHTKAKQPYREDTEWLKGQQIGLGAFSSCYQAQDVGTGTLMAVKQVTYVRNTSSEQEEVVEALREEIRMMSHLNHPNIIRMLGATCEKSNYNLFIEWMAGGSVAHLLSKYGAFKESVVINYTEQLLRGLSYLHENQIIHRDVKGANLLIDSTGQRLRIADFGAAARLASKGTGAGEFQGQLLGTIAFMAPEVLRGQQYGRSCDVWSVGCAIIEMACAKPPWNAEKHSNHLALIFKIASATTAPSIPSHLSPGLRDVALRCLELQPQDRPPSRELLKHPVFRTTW

[6] = target: T2, Homeodomain-interacting protein kinase 4 (Homo sapiens) (UniProt Q8NE63); test: Selectivity interaction (KinomeScan (DiscoverX)) EUB0000695a HIPK4; conditions: at 100 nM
T2 sequence (whole entry): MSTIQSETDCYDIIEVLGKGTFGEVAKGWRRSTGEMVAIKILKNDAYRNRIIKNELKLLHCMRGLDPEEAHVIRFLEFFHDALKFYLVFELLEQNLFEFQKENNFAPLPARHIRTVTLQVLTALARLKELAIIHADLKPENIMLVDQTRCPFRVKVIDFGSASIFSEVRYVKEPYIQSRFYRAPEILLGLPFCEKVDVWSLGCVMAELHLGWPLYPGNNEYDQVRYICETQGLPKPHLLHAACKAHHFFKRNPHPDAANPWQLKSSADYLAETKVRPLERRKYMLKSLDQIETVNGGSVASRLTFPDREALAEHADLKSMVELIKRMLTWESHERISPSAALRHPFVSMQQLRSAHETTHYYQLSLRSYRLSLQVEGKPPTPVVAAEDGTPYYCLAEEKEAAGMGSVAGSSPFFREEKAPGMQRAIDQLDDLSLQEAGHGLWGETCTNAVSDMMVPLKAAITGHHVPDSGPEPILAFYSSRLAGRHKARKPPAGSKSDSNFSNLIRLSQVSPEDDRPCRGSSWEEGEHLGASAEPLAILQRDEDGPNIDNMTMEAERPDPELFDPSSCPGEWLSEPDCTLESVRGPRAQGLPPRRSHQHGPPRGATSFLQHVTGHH

[7] = target: T3, Dual specificity mitogen-activated protein kinase kinase 7 (Homo sapiens) (UniProt O14733); test: Selectivity interaction (KinomeScan (DiscoverX)) EUB0000045b MAP2K7
T3 sequence (whole entry): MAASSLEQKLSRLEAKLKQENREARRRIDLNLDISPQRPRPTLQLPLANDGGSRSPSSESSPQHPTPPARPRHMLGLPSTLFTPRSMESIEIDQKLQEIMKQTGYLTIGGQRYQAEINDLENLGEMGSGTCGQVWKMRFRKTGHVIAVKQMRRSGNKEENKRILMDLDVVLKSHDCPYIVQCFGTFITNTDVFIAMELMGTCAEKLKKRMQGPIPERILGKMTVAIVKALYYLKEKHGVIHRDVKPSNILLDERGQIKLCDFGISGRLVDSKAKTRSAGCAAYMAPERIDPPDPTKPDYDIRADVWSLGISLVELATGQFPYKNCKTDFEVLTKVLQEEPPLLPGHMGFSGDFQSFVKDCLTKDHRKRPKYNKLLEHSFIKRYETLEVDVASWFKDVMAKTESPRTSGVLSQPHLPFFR

[8] = target: Ribosomal protein S6 kinase alpha-6 (Homo sapiens, UniProt Q9UK32); test: Selectivity interaction (KinomeScan (DiscoverX)) EUB0000045b RPS6KA6
Chain of Ribosomal protein S6 kinase alpha-6 (Q9UK32 whole entry): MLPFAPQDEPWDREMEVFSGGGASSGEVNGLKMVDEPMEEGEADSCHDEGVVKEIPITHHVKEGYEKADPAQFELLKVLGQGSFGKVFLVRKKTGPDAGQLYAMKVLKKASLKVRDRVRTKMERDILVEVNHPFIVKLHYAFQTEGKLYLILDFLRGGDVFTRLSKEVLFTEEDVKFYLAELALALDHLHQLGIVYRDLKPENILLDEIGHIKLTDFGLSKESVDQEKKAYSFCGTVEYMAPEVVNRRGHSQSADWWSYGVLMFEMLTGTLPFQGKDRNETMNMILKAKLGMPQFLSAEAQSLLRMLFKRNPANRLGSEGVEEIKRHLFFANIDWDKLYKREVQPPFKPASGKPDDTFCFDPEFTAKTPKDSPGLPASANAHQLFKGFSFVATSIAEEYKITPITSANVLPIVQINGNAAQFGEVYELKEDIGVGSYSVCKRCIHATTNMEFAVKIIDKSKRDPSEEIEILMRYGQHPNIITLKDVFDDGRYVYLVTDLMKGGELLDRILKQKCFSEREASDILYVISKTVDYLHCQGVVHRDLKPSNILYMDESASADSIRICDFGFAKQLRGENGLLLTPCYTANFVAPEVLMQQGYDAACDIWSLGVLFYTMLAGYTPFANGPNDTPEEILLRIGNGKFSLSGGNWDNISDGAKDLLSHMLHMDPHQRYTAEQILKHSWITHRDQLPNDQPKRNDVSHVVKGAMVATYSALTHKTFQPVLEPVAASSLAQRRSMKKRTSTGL

Chain of Dual specificity protein kinase CLK2 (P49760 whole entry, looked up): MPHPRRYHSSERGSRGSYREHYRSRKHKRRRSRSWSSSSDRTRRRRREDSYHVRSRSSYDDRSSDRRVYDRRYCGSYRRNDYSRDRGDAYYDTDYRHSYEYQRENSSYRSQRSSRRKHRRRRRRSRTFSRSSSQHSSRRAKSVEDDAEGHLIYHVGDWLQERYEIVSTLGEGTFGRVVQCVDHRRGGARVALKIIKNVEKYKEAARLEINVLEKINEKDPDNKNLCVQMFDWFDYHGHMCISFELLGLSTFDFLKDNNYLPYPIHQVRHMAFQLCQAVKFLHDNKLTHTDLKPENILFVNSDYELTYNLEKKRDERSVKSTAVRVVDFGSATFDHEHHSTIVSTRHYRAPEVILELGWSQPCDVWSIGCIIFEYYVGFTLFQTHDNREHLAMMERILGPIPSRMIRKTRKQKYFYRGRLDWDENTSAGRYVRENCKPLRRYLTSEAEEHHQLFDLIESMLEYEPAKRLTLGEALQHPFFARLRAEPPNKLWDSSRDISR

CN(C)CC#Cc1ccc2[nH]c3c(c2c1)-c1nc(N)ncc1CCC3
% of control [1]: 20%

Nc1cnc(N2CCc3cc(S(=O)(=O)Nc4c(F)cc(Cl)cc4F)cc(N4CCCC4=O)c32)nc1 [TP-020n]
% of inhibition [2]: -2.82%

O=C(NOC[C@H](O)CO)c1ccc(F)c(F)c1Nc1ccc(I)cc1F
% of control [3]: 100%

CCc1cccc(CC)c1NC(=O)c1nn(C)c2c1CCc1cnc(Nc3ccc(C(=O)NC4CCN(C)CC4)cc3OC(F)(F)F)nc1-2
pIC50 [4]: < 5.00

CC[C@@H]1[C@H](F)C(=O)N[C@@H]1COc1nccc2cc(C(N)=O)c(OC)cc12 [ZIMLOVISERTIB]
% of inhibition ([5]; at 0.01 µM): 9.7% | % of inhibition ([5]; at 0.04 µM): -2.5% | % of inhibition ([5]; at 0.2 µM): -19.5% | % of inhibition ([5]; at 1 µM): -13.4% | % of inhibition ([5]; at 5 µM): 3.7%

Cc1cc(F)c(C(=O)Nc2cccc(-c3nncn3C(C)C)n2)cc1-n1cnc(C2CC2)c1
% of control [6]: 100%

C=CC(=O)Nc1cc(-n2c(=O)ccc3cnc4ccc(-c5ccc(NS(C)(=O)=O)cc5)cc4c32)ccc1C
% of control ([7]; at 1 µM): 49% | % of control ([7]; at 10 µM): 6.1% | % of control ([8]; at 1 µM): 100% | % of control ([8]; at 10 µM): 56%
